Results: patent US8361510B2, “Nanogels for cellular delivery of therapeutics” (Georgia Tech Research Corporation, priority 2008, dated 2013)
Where no end group is shown, it is not given here.

Columns and labels:
Type in all cases: cell-based
[1] = test system: Hey cells; test: Flow cytometry of nanogel binding/uptake; conditions: 0.8 mg/mL nanogels, four hours
Description: Flow cytometry. Hey cells were plated at 2.5×10^5 cells/well in a 12-well, cell culture plate. Cells were allowed to adhere overnight in an incubator at 37° C. in a 5% CO2 atmosphere. Cells were washed, and fresh medium was added containing YSA-pNIPMAm or SCR-pNIPMAm nanogels at a concentration of 0.8 mg/mL and incubated for four hours. Following incubation, the cells were washed with PBS and removed from the plate by Trypsin-EDTA treatment. The cells were washed with PBS and fixed with 2% (v/v) paraformaldehyde. Cells were analyzed using a LSR Flow Cytometer (BD Biosciences). Data analysis was carried out using FlowJo software.

[2] = test system: Hey cells; test: Trypan blue exclusion assay
Description: Toxicity Studies—Trypan blue exclusion assay. Hey cells were plated onto an 8-well chamber slide (1×10^4 cells/well) and allowed to adhere overnight at 37° C. and 5% CO2. The media was removed, the wells washed with PBS, and the medium replaced. PNIPMAm nanogels, YSA-conjugated nanogels, and SCR-conjugated nanogels were added to cells and incubated for 72 h. Untreated cells were used as controls. After 72 h, the cells washed with PBS, and a 1:1 solution of trypan blue was added to each well. After 1 min, the trypan blue was removed, the cells were washed with PBS, fixed with 2% (v/v) paraformaldehyde, and air dried. Each well was then viewed via bright field microscopy to determine the number of stained (dead) versus unstained cells. Five fields were viewed for each treatment.

[3] = test system: EGFR; test: EGFR expression by immunoblotting in Hey cells; conditions: Example 2
Description: Immunoblotting. Hey cells were plated into 6-well plates (5×10^5/well) and allowed to adhere overnight at 37° C., 5% CO2. The cells were lysed with 100 μL of lysis buffer (50 mM Tris-HCl, pH 7.5, 150 mM NaCl, 2 mM EDTA (Fisher), 2 mM EGTA (Fisher), 1 mM sodium orthovanadate, 2.5 mM sodium pyrophosphate, 1 mM β-gycerolphosphate, 1 mM phenylmethanesulfonyl fluoride, 10 μg/mL aprotinin, 10 μg/mL leupeptin, 1% Triton X-100, and 5% glycerol), and the cell lysates sonicated four times for five seconds each. The lysates were cleared by centrifugation at 11,000×g rcf for […] at 4° C. Cell lysates were prepared for analysis by the addition of an equal volume of Laemmli 2× sample buffer. The samples were heated to 95° C. for […] to denature the proteins. The proteins were separated on a 10% SDS-PAGE gel and transferred onto nitrocellulose. The blots were blocked with either 5% nonfat dry milk (NFDM) or 5% bovine serum albumin (BSA) in 10 mM Tris-buffered saline, pH 7.5 plus 1% Tween 20 (TBST, BioRad) for 1 hour at room temperature. The blots were probed with anti-EGFR antibody (Cell Signaling, Danvers, Mass.; cat. no. 4405) or with a β-actin antibody (Millipore, Billerica, Mass.; Mab1501) diluted in 5% NFDM or 5% BSA overnight, with shaking at 4° C. For EphA2 detection, the blots were probed with an anti-EphA2 polyclonal antibody (Santa Cruz Biotechnology, Santa Cruz, Calif.; sc-294). The blots were washed three times with TBST and probed with goat anti-rabbit IgG (Santa Cruz, sc-2004) or with goat anti-mouse IgG (Santa Cruz, sc-2005) linked to horseradish peroxidase (HRP). Bands were visualized on film (Pierce) using the ECL reagent, SuperSignal West Pico™ (Pierce).
As described above, we chose siRNA targeting EGFR; knockdown of this receptor is non-lethal, but has clinical relevance in the treatment of drug resistant ovarian carcinomas. To determine if we could effectively knockdown EGFR in vitro, EGFR siRNA was encapsulated at a concentration of 16.6 μg of EGFR siRNA/mg of nanogels, using the loading technique described above. […]

[4] = test system: Hey cells; test: Chemosensitization to docetaxel (Tox8), Hey cells; conditions: control treatments
Description: Treatment with docetaxel. Hey or SK-OV-3 cells were plated in 96-well cell culture plates at a concentration of 1×10^4 cells/well. Hey or SK-OV-3 cells were subjected to nanogel delivery of siRNA at nanogel concentrations of 1000, 100, 10, and 1 μg/mL. Forty-eight hours after siRNA delivery, docetaxel was added to Hey or SK-OV-3 cells at concentrations ranging from 0.01-1000 nM. Treatment wells were set up in triplicate, and the cells were incubated with docetaxel for an additional 4 days. After treatment, the cells were washed with PBS, and 100 μL of medium was added back to the wells. To this, 10 μL of Tox8 was added to determine cell viability. The cells were incubated with the Tox8 reagent according to the manufacturer's instructions. The fluorescence was measured ([…]) by a Spectramax Gemini Fluorescence Microplate Reader (Molecular Devices, Sunnyvale, Calif.). Wells without cells but with Tox8 were used as controls and subtracted from all treatments as background. Each experiment was performed in duplicate.
Statistical analysis. Statistical analysis of the immunoblot data was performed using a non-parametric ANOVA (Kruskal Wallis) test. If significance was indicated, a Dunn's post-test was used to determine significance between groups. […]

Substance | cell fluorescence relative to cell autofluorescence [1] | blue (dead) cells [2] | EGFR expression of control treatments compared to untreated cells [3] | sensitivity to docetaxel versus untreated controls [4]
SCR-conjugated nanogels: nanogels bearing the scrambled peptide DYPSMAMYSPSVC (SEQ ID NO 2), control (also: conjugated to nanogels) [reference compound] | only slightly greater than the cell autofluorescence background signal | not observed |  | 
YSAYPDSVPMMSC (listed as Homo sapiens) [YSA peptide] |  |  | diminished EGFR expression | increased sensitivity to docetaxel
